What was measured:
Type in all cases: cell-based
ΔF508-CFTR [1] = biological target: T1, ΔF508-CFTR (Homo sapiens, UniProt P13569, DEL508-508); experiment: Short-circuit current (apical membrane chloride current) corrector assay in ΔF508-CFTR expressing FRT cells
T1 construct: expressed in transfected cells; host or cells: Fischer rat thyroid (FRT) epithelial cells, stably transfected
Procedure: (§1) Short-circuit current measurements. ΔF508-CFTR-expressing FRT cells were cultured on Snapwell inserts for 7-9 days. For corrector testing, test compounds were incubated with FRT cells for 18-24 h at 37° C. prior to measurements. For potentiator testing, the FRT cells were incubated for 18-24 h at 27° C. prior to measurements. The basolateral solution contained 130 mM NaCl, 2.7 mM KCl, 1.5 mM KH2PO4, 1 mM CaCl2, 0.5 mM MgCl2, 10 mM glucose, and 10 mM Na-HEPES (pH 7.3). In the apical bathing solution, 65 mM NaCl was replaced by Na gluconate, and CaCl2 was increased to 2 mM. Solutions were bubbled with air and maintained at 37° C. The basolateral membrane was permeabilized with 250 μg/ml amphotericin B. Hemichambers were connected to a DVC-1000 voltage clamp (World Precision Instruments Inc.) via Ag/AgCl electrodes and 1 M KCl agar bridges for recording of short-circuit current.
Short-circuit current was measured as a definitive electrophysiological assay to verify Compound 22 corrector action. Apical membrane chloride current was measured in ΔF508-CFTR expressing FRT cells after basolateral membrane permeabilization and in the presence of a transepithelial chloride gradient (apical, 65 mM; basolateral, 130 mM). In FIG. 3C, incubation with Corr-4a (5 μM) is shown as reference (right). Forskolin (20 μM), genistein (50 μM) and CFTRinh-172 (10 μM) were added where indicated. […] FIG. 3D summarizes Compound 22 concentration dependence data from short-circuit current studies. […]
(§2) Short-circuit current was measured in an electrophysiology assay to verify corrector activity. Apical membrane chloride current was measured in ΔF508-CFTR expressing FRT cells after basolateral membrane permeabilization and in the presence of a transepithelial chloride gradient. […] To assay potentiator activity apical membrane chloride current was measured after low-temperature rescue, in response to CP-3 addition. CP-3 concentration-dependent increases in apical membrane current were measured in the presence of 5 μM forskolin. […]

ΔF508-CFTR [2] = biological target: T1, ΔF508-CFTR; experiment: Corrector assay by YFP/iodide fluorescence quenching in ΔF508-CFTR expressing A549 cells; details: 24 h at 37° C.
Procedure: FIGS. 6A and 6B show graphs of Compound 22 activity in G551D-CFTR expressing FRT cells and DF508-CFTR expressing […] cells, according to embodiments of the present disclosure. […] (top) or 27° C. (bottom) for 24 h prior to iodide influx measurement, according to embodiments of the present disclosure. Graphs are representative of 3 sets of measurements.
(§3) To test whether Compound 22 is active in a different cell background, potentiator and corrector assays were performed in ΔF508-CFTR transfected A549 cells, which are of human lung epithelial origin. […] Apparent EC50 for Compound 22 potentiator activity was about 8 μM (FIG. 6B). […] (FIG. 6C, top). Compound 22 was further tested for corrector activity in A549 cells under the low-temperature synergy condition; however, DF508-CFTR was fully activated by forskolin ([…]) and genistein ([…]) in this cell model (FIG. 6C, bottom).

ΔF508-CFTR [3] = biological target: T1, ΔF508-CFTR; experiment: Short-circuit current potentiator assay in ΔF508-CFTR expressing FRT cells after low-temperature rescue; details: 27° C. for 24 h prior to measurement, in the presence of forskolin; read-out: Apparent EC50 for potentiator activity as measured by short-circuit current
Procedure: as §1, with “The basolateral membrane was permeabilized with 250 μg/ml amphotericin B. Hemichambers were connected to a DVC-1000 voltage clamp (World Precision Instruments Inc.) via Ag/AgCl electrodes and 1 M KCl agar bridges for recording of short-circuit current.” left out
Short-circuit current measurements were performed to further characterize Compound 22 potentiator activity in which apical membrane chloride current was measured in ΔF508-CFTR expressing FRT cells, after low-temperature rescue, in response to Compound 22 additions. […]
as §2, with “addition.” for “addition. CP-3 concentration-dependent increases in apical membrane current were measured in the presence of 5 μM forskolin.”

wildtype CFTR = biological target: T2, wildtype CFTR (Homo sapiens, UniProt P13569); experiment: Short-circuit current in FRT cells expressing wildtype CFTR; details: added after 0.25 or 0.5 μM forskolin
T2 construct: expressed in transfected cells; host or cells: Fischer rat thyroid (FRT) epithelial cells, stably transfected
Procedure: To further investigate Compound 22 potentiator action, short-circuit current was measured in FRT cells expressing wildtype CFTR (FIG. 5B). Studies were done as in FIG. 5A except that low concentrations of forskolin (0-0.5 μM) were used because higher concentrations fully activate wildtype CFTR and thus would mask Compound 22 potentiator action. As found for ΔF508-CFTR, there was little effect of Compound 22 in the absence of forskolin. In each experiment, after Compound 22 additions, 10 μM forskolin was added to fully activate wildtype CFTR, followed by 50 μM genistein, which had little effect, followed by 10 μM CFTRinh-172, which inhibited all chloride current.

ΔF508-CFTR [4] = biological target: T1, ΔF508-CFTR; experiment: Potentiator assay by YFP/iodide fluorescence quenching in ΔF508-CFTR expressing A549 cells
Procedure: Representative fluorescence quenching curves (FIG. 6B (top)) shown with deduced Compound 22 and genistein concentration dependence (FIG. 6B (bottom), SEM, n=4). Fluorescence plate reader assays in FIG. 6B confirmed that Compound 22 activated G551D-CFTR in the presence of forskolin, with lower maximal efficacy than genistein.
as §3

T1 sequence (P13569 with tags, fused parts or gaps DEL508-508): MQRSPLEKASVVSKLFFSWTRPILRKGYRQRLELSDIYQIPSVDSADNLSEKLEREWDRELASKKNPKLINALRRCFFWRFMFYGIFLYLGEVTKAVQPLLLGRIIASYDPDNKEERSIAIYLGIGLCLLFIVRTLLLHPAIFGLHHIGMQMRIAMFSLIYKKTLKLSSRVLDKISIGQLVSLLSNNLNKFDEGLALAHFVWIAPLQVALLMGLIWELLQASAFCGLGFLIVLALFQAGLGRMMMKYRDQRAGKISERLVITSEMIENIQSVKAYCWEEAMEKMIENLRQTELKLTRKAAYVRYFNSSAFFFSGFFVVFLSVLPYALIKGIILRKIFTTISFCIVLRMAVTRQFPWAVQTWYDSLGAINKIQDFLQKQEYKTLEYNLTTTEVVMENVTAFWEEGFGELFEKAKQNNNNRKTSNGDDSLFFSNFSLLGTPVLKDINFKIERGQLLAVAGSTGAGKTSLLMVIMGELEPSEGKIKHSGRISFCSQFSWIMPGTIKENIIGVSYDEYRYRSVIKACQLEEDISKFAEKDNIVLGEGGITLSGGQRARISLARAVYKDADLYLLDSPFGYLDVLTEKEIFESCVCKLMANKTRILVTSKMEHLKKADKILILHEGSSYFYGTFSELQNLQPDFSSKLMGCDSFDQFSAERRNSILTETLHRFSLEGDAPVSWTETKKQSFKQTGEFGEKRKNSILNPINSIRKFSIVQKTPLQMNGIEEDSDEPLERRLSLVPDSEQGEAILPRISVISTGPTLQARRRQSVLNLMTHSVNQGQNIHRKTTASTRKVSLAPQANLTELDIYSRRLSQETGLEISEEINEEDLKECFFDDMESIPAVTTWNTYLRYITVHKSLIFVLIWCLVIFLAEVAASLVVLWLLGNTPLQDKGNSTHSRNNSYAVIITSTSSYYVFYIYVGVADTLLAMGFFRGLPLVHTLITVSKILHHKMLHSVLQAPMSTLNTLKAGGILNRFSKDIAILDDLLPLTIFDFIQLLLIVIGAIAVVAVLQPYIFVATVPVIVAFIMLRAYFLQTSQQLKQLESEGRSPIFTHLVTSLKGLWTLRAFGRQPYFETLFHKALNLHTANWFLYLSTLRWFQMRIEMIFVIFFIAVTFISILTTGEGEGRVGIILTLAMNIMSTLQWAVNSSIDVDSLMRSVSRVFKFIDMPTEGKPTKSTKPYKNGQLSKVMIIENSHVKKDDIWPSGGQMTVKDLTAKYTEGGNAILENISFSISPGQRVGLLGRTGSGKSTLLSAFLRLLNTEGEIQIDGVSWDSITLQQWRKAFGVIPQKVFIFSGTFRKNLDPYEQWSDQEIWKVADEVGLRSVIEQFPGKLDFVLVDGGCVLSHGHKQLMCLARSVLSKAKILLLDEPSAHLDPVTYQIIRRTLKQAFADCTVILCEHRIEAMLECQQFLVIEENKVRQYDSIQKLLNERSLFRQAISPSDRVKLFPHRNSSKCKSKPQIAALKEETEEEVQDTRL
T2 sequence (P13569 whole entry): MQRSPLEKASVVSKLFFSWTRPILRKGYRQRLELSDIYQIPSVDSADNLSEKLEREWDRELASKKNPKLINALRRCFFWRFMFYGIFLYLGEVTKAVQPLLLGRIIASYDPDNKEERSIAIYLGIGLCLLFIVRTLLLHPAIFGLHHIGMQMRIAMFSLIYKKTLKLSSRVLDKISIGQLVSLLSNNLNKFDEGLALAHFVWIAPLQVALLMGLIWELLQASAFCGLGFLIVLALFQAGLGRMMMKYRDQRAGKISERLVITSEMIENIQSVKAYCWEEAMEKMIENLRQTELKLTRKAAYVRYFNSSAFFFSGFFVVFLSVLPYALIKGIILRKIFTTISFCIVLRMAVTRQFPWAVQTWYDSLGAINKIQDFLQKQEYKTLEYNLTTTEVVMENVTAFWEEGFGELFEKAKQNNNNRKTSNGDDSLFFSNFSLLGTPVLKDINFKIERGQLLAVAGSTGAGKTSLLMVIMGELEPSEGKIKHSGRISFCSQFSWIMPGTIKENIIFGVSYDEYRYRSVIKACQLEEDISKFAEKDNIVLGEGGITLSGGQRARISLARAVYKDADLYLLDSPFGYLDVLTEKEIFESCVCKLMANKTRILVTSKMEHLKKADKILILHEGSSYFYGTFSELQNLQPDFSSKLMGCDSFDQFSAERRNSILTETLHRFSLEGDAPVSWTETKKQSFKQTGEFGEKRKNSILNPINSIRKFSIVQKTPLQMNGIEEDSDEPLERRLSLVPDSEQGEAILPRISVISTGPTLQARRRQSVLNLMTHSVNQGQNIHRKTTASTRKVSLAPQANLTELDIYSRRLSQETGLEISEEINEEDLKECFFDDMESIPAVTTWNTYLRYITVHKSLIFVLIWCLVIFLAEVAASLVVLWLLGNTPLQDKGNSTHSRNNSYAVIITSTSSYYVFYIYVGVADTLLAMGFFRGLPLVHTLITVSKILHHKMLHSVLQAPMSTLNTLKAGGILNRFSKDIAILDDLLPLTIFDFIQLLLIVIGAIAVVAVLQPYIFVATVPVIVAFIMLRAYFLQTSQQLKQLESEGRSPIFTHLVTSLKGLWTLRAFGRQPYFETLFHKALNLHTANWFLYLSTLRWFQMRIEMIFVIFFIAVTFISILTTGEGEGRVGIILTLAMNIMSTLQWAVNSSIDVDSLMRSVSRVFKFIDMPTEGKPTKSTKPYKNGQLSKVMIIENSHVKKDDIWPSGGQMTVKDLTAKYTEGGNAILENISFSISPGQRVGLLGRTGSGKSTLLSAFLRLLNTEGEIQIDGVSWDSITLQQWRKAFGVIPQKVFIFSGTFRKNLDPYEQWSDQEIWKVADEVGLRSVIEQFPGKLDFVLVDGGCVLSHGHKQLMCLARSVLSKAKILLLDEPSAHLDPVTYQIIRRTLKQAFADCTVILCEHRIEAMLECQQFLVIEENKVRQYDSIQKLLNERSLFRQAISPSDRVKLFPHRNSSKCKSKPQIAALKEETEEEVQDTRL

EC50 (ΔF508-CFTR [3]): ~10 µM | activation of wildtype CFTR, in words (wildtype CFTR): partially activated | EC50 (wildtype CFTR; read-out: EC50 of wildtype CFTR activation): ~10 µM | potentiator activity in A549 cells, in words (ΔF508-CFTR [4]): comparable to that in FRT cells | EC50 (ΔF508-CFTR [4]; A549 cells, read-out: Apparent EC50 for potentiator activity): ~8 µM
Structure (SMILES): COc1cccc(C(=O)NCCNc2nc3cc(C)cc(C)c3cc2C#N)c1 [Compound 22, N-(2-((3-Cyano-5,7-dimethylquinolin-2-yl)amino)ethyl)-3-methoxybenzamide]
increase in apical membrane current (corrector) (ΔF508-CFTR [1]; 5 and 10 μM, 18-24 h incubation): comparable to that conferred by 5 μM Corr-4a | corrector and potentiator maximum efficacy (ΔF508-CFTR [1]; electrophysiological analysis): comparable to those of the bithiazole Corr-4a and the flavone genistein | corrector activity in A549 cells, in words (ΔF508-CFTR [2]): little corrector activity compared to Corr-4a
